{
  "source": "paper PMC9587032",
  "about": "“Mapping periplasmic binding protein oligosaccharide recognition with neutron crystallography” (Scientific Reports, 2022)",
  "target": "T1, tmMBP (tmMBP2 isoform; maltodextrin-binding protein) (Thermotoga maritima, UniProt Q9S5Y1)",
  "T1 construct": "gene TM_1839; H/D-exchanged crystal, single chain in asymmetric unit",
  "T1 sequence (Q9S5Y1 20-393)": "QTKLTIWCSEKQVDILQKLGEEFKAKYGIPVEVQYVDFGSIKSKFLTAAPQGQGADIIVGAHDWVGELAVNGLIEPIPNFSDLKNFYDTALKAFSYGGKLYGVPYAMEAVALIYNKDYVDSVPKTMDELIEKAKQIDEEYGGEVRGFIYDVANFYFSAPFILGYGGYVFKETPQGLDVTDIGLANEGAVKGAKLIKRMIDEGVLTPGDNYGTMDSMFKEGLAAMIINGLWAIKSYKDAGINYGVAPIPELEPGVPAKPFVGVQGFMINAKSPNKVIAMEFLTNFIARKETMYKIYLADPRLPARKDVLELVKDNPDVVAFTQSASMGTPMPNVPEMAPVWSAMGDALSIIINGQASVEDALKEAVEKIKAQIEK",
  "test": "joint neutron/X-ray crystal structure",
  "conditions": "pH 5.5 crystals, room temperature, D2O exchanged; interdomain binding site; neutron 2.10 A, X-ray 1.70 A",
  "data": [
    {"smiles": "OC[C@H]1O[C@H](O[C@H]2[C@H](O)[C@@H](O)[C@@H](O[C@H]3[C@H](O)[C@@H](O)[C@@H](O[C@H]4[C@H](O)[C@@H](O)C(O)O[C@@H]4CO)O[C@@H]3CO)O[C@@H]2CO)[C@H](O)[C@@H](O)[C@@H]1O", "note": "(stereo partly shown) [maltotetraose]", "values": [
      {"measurement": "joint neutron/X-ray crystal structure", "value": "final refined atomic model for maltotetraose bound tmMBP have been deposited"}
    ]}
  ]
}
